For 8 compounds, Kd results are on record in ChEMBL document CHEMBL3991601, “The target landscape of clinical kinase drugs” (Science, 2017).

Structures are written as SMILES. Activity calls are given as the source filed them. For most assays here, no stated cut-off is given here; in the data, actives have a measured Kd and inactives only a lower limit. Bounds are passed on as bounds.

Test [1] deals with Ribosomal protein S6 kinase alpha-6 (Homo sapiens, UniProt Q9UK32).
Test [2] addresses T1, Dual specificity mitogen-activated protein kinase kinase 6 (Homo sapiens, UniProt P52564).
T1 sequence (P52564 whole entry): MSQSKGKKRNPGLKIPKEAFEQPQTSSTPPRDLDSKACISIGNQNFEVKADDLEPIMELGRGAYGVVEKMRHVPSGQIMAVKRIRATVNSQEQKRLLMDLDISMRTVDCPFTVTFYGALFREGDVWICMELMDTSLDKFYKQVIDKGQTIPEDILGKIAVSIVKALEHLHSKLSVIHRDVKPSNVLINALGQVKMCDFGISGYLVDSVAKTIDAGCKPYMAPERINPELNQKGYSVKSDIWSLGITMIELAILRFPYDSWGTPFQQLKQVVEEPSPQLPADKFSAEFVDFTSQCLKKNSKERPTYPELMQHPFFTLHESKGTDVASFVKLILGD

The target in test [3] is T2, cGMP-dependent protein kinase 1 (Homo sapiens, UniProt Q13976).
T2 sequence (Q13976 whole entry): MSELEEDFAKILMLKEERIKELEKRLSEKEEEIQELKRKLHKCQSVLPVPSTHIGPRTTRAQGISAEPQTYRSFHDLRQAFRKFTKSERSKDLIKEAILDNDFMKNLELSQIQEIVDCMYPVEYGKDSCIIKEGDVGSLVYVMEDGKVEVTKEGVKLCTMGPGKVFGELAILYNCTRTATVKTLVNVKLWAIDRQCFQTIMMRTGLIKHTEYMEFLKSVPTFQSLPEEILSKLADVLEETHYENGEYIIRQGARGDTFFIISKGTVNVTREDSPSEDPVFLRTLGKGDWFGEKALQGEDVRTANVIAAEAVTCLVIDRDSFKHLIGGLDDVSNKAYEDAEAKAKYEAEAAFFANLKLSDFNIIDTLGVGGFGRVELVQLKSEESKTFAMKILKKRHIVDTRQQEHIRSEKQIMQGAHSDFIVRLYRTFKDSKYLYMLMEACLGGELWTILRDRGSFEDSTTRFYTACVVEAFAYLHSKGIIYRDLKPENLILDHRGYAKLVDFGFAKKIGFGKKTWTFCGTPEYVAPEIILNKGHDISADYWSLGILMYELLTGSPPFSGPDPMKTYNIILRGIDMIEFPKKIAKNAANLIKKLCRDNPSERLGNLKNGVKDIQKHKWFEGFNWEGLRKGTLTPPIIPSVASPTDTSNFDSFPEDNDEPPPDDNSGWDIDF

In test [4] the target is T3, Uncharacterized protein FLJ45252 (Homo sapiens, UniProt Q6ZSR9).
T3 sequence (Q6ZSR9 whole entry): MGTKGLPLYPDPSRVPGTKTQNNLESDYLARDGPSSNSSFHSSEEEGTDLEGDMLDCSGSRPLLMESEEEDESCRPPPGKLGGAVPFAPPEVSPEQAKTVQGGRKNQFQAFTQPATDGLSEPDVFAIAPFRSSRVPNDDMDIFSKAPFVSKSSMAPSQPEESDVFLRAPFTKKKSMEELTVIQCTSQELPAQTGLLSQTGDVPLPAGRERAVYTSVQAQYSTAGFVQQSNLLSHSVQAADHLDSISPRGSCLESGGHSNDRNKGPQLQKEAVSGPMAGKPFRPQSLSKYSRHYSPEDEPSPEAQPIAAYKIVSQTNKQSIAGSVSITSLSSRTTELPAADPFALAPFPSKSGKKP
Particulars: read-out: Kd apparent; k-562, colo 205, sk-n-be(2) and mv-4-11.

Test [5] concerns the target Casein kinase I isoform alpha (Homo sapiens, UniProt P48729).
Test [6] addresses T4, Interleukin-1 receptor-associated kinase 4 (Homo sapiens, UniProt Q9NWZ3).
T4 sequence (Q9NWZ3 whole entry): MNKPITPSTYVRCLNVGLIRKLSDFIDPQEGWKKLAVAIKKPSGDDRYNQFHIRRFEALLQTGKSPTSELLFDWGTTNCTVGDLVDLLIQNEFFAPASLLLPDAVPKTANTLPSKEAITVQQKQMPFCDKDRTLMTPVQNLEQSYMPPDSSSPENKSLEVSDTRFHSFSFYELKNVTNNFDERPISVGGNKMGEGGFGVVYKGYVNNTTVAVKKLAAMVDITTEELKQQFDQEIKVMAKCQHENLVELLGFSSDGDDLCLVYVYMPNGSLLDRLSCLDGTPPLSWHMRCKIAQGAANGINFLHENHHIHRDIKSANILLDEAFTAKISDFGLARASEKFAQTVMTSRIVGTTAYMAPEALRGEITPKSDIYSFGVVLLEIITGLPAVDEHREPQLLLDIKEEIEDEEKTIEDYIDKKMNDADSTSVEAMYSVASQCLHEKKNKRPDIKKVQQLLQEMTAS

Test [7] has as its target T5, Serine/threonine-protein kinase ICK (Homo sapiens, UniProt Q9UPZ9).
T5 sequence (Q9UPZ9 whole entry): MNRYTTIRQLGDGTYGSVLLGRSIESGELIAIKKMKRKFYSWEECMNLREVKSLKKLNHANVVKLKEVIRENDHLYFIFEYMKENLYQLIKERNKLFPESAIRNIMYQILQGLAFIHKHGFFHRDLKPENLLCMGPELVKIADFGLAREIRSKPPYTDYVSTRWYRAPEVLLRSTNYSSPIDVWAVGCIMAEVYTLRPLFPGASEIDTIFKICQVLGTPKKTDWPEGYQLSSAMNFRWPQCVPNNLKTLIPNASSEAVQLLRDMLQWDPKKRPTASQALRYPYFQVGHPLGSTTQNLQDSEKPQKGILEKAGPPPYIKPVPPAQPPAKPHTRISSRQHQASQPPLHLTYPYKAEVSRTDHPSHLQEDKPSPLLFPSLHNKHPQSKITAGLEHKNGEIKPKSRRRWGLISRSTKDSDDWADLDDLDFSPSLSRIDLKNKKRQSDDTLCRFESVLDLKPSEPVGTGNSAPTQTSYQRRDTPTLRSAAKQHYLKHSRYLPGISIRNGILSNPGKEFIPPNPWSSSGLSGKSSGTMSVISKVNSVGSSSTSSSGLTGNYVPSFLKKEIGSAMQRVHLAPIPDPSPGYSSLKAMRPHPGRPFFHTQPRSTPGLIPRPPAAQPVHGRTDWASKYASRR

For test [8], the target named is Cyclin-dependent kinase 3 (Homo sapiens, UniProt Q00526).
Sequence of Cyclin-dependent kinase 3 (Q00526 whole entry): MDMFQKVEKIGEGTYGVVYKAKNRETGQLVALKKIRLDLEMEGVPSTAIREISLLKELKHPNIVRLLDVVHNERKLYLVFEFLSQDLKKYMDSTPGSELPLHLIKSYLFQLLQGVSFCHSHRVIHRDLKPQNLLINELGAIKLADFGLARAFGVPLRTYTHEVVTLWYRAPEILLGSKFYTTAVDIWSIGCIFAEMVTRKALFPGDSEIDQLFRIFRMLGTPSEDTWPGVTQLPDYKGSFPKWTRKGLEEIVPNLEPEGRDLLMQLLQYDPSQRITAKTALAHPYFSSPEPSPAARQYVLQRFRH
Test [9] has as its target AP2-associated protein kinase 1 (Homo sapiens, UniProt Q2M2I8).
In test [10] the target is Macrophage-stimulating protein receptor (Homo sapiens, UniProt Q04912).
A further test deals with Deoxycytidine kinase (Homo sapiens, UniProt P27707).
Sequence of Deoxycytidine kinase (P27707 whole entry): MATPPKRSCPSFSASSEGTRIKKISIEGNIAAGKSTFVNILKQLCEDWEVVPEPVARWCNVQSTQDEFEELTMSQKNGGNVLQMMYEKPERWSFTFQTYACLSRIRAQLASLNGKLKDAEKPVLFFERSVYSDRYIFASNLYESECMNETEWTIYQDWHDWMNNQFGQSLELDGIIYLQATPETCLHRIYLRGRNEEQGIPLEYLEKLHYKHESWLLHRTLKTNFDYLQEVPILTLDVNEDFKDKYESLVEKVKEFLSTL
The target in test [11] is Mitotic checkpoint serine/threonine-protein kinase BUB1 (Homo sapiens, UniProt O43683).
Sequence of Mitotic checkpoint serine/threonine-protein kinase BUB1 (O43683 whole entry): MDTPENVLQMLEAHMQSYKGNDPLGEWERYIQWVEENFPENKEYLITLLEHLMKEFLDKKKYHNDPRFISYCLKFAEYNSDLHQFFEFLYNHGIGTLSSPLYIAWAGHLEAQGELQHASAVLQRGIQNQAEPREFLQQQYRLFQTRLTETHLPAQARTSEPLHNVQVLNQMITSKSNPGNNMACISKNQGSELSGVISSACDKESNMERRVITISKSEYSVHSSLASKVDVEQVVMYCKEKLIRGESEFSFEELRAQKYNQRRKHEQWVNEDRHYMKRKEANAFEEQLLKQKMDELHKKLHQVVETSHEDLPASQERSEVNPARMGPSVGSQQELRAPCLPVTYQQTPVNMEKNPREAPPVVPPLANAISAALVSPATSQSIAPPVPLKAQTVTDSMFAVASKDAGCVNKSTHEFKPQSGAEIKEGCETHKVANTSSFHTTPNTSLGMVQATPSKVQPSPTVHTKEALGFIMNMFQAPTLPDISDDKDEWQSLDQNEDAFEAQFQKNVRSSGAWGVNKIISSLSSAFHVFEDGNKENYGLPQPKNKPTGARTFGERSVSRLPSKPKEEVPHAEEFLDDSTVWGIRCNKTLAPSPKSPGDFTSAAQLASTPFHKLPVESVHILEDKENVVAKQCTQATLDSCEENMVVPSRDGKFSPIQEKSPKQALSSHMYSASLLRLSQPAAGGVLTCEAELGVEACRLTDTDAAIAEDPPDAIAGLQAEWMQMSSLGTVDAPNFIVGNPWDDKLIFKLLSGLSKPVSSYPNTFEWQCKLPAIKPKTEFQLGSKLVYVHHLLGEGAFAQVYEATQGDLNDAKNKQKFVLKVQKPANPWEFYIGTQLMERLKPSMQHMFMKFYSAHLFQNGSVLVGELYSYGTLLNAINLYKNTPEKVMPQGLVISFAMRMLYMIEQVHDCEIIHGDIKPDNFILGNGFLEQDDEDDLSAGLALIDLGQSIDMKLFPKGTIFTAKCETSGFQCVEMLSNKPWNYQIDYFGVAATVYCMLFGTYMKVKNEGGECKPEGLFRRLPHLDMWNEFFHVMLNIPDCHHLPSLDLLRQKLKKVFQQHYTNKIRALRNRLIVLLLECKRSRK

Sequence of AP2-associated protein kinase 1 (Q2M2I8 whole entry): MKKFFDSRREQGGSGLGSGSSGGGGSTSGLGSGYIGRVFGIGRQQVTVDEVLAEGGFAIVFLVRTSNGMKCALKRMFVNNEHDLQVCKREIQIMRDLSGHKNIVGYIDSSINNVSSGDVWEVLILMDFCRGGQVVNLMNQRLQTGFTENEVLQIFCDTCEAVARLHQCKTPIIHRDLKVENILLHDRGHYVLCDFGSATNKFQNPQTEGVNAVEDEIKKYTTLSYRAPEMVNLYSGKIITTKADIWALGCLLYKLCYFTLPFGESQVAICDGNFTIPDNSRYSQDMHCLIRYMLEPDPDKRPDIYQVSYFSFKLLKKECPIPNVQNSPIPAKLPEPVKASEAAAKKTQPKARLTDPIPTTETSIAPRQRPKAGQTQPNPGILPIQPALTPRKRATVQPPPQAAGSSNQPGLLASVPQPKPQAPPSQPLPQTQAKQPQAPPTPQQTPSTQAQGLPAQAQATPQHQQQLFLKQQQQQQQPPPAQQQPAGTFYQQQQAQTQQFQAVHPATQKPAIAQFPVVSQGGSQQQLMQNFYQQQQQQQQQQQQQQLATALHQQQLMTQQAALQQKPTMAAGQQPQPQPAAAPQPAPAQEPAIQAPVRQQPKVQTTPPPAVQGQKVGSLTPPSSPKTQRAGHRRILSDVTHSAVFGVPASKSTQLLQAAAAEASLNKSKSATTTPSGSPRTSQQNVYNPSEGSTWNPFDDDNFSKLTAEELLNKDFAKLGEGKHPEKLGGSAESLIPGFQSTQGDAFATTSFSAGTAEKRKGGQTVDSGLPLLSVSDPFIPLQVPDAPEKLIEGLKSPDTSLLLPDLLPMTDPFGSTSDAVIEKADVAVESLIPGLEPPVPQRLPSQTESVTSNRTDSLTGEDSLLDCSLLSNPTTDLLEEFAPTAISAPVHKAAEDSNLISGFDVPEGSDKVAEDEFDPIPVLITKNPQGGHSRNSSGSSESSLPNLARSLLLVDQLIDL
Sequence of Ribosomal protein S6 kinase alpha-6 (Q9UK32 whole entry): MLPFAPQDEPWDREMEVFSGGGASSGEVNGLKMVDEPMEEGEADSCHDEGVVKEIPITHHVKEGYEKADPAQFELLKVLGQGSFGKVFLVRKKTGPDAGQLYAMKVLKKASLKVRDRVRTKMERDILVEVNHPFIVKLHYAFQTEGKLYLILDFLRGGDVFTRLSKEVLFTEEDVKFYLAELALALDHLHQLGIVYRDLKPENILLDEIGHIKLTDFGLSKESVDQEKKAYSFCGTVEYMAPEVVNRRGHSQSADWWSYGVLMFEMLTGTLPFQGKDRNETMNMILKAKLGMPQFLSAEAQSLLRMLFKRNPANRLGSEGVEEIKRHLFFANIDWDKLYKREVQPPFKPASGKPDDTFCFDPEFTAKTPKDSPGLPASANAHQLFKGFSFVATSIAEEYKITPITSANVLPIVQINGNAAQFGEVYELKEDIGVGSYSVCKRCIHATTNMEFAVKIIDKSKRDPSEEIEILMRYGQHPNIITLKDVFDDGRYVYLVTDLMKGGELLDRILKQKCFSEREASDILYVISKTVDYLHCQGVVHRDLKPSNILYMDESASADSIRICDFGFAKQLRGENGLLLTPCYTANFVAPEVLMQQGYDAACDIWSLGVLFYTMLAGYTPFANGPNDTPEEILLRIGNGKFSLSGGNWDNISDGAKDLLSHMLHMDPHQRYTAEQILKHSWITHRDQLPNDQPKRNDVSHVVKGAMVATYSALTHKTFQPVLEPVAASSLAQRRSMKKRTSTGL
Sequence of Casein kinase I isoform alpha (P48729 whole entry, canonical isoform): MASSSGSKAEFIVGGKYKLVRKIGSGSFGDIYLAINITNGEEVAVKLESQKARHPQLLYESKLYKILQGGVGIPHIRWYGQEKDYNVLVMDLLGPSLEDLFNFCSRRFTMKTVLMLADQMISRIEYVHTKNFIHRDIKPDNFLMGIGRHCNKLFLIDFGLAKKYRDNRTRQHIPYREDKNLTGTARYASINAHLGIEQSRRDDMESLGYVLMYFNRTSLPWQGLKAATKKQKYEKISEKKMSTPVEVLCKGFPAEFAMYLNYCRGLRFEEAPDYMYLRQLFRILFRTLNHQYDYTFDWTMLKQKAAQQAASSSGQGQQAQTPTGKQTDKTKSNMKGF

As to `COCCN1CCN(Cc2ccc(-c3n[nH]c4c3C(=O)c3c(NC(=O)NN5CCOCC5)cccc3-4)cc2)CC1` [RGB-286638], the Kd is > 30 µM (inactive) in [1]; 1.95 µM (active) in [2]; > 30 µM (inactive) in test [3]; 0.022 µM (active) in test [4]; 8.07 µM (active) in test [5]; > 30 µM (inactive) in [6]. The Kd in [7] is 0.008 µM (active); in [8] it was > 30 µM (inactive); in test [9], 0.022 µM (active); in test [10], > 30 µM (inactive); at Deoxycytidine kinase, > 30 µM (inactive); in test [11], > 30 µM (inactive).
As for `CC(C)(O)CC(=O)NCCn1ccc2ncnc(Nc3ccc(Oc4cccc(C(F)(F)F)c4)c(Cl)c3)c21` [TAK-285], the Kd in [1], in test [2], in test [3], in test [4], in test [5] and in [6] was > 30 µM (inactive) each time. The Kd (in [7]; in test [8]; in test [9]; in test [10]; at Deoxycytidine kinase; in test [11]) was > 30 µM (inactive) throughout.
As for `C[C@@H]1COC(Nc2ccc3ncnc(Nc4ccc(OCc5nccs5)c(Cl)c4)c3c2)=N1` [VARLITINIB], the Kd in [1], in test [2], in test [3], in test [4], in test [5] and in [6] was > 30 µM (inactive) in each case. Besides, the Kd (in [7]; in [8]; in test [9]; in test [10]; at Deoxycytidine kinase; in test [11]) was > 30 µM (inactive) in each case.
Regarding `CCc1cc2c(cc1N1CCC(N3CCOCC3)CC1)C(C)(C)c1[nH]c3cc(C#N)ccc3c1C2=O` [ALECTINIB], the Kd in test [1], in test [2], in [3], in [4], in test [5] and in [6] was > 30 µM (inactive) in each case. Moreover, the Kd (in [7]; in [8]; in [9]; in test [10]; on Deoxycytidine kinase; in test [11]) was > 30 µM (inactive) throughout.
In the case of `COc1cc(Nc2ncc(F)c(Nc3ccc4c(n3)N(COP(=O)(O)O)C(=O)C(C)(C)O4)n2)cc(OC)c1OC` [FOSTAMATINIB], the Kd in test [1], in test [2], in test [3], in [4], in [5] and in [6] was > 30 µM (inactive) each time. Further, the Kd in test [7] was > 30 µM (inactive); in test [8], > 30 µM (inactive); in test [9], > 30 µM (inactive); in test [10], 2.13 µM (active); on Deoxycytidine kinase, > 30 µM (inactive); in test [11] it was > 30 µM (inactive).
As to `COc1cccc2cc(-c3nc([C@H]4CC[C@H](C(=O)O)CC4)n4ncnc(N)c34)[nH]c12` [OSI-027], the Kd in test [1], in [2], in test [3], in test [4], in test [5] and in test [6] was > 30 µM (inactive) throughout. For the same compound, the Kd (in test [7]; in test [8]; in test [9]; in test [10]; at Deoxycytidine kinase; in [11]) was > 30 µM (inactive) throughout.
As to `COc1ccc2c(OCc3nnc4ccc(-c5ccccc5)nn34)ccnc2c1` [AMG-208], the Kd in test [1], in test [2], in [3], in test [4], in [5] and in test [6] was > 30 µM (inactive) each time. The Kd (in test [7]; in [8]; in test [9]; in [10]; on Deoxycytidine kinase; in test [11]) was > 30 µM (inactive) throughout.
As for `COc1cc2ncnc(Nc3ccc(F)c(Cl)c3)c2cc1NC(=O)/C=C/CN1CCCCC1` [DACOMITINIB ANHYDROUS], the Kd in test [1], in test [2], in test [3], in test [4], in [5] and in test [6] was > 30 µM (inactive) throughout. Further, the Kd (in test [7]; in [8]; in [9]; in test [10]; on Deoxycytidine kinase; in test [11]) was > 30 µM (inactive) in each case.
